Measurements taken from patent publication US10259810B2, “N-sulfonylated pyrazolo[3,4-b]pyridin-6-carboxamides and method of use” (AbbVie S.à.r.l., priority 2015, dated 2019).

Key:
ΔF508-CFTR [1] = target: T1, ΔF508-CFTR (Homo sapiens, UniProt P13569, DEL508-508); test: CFTR cell surface levels using HRP-tagged ΔF508-CFTR expressing CFBE cells, in the presence of a co-corrector; assay type: cell-based; details: HRP-tagged ΔF508-CFTR CFBE cells, in the presence of 3 μM co-corrector; for EC50: read-out: EC50
T1 construct: host or cells: CFBE41o-, doxycycline-inducible
T1 sequence (P13569 with tags, fused parts or gaps DEL508-508): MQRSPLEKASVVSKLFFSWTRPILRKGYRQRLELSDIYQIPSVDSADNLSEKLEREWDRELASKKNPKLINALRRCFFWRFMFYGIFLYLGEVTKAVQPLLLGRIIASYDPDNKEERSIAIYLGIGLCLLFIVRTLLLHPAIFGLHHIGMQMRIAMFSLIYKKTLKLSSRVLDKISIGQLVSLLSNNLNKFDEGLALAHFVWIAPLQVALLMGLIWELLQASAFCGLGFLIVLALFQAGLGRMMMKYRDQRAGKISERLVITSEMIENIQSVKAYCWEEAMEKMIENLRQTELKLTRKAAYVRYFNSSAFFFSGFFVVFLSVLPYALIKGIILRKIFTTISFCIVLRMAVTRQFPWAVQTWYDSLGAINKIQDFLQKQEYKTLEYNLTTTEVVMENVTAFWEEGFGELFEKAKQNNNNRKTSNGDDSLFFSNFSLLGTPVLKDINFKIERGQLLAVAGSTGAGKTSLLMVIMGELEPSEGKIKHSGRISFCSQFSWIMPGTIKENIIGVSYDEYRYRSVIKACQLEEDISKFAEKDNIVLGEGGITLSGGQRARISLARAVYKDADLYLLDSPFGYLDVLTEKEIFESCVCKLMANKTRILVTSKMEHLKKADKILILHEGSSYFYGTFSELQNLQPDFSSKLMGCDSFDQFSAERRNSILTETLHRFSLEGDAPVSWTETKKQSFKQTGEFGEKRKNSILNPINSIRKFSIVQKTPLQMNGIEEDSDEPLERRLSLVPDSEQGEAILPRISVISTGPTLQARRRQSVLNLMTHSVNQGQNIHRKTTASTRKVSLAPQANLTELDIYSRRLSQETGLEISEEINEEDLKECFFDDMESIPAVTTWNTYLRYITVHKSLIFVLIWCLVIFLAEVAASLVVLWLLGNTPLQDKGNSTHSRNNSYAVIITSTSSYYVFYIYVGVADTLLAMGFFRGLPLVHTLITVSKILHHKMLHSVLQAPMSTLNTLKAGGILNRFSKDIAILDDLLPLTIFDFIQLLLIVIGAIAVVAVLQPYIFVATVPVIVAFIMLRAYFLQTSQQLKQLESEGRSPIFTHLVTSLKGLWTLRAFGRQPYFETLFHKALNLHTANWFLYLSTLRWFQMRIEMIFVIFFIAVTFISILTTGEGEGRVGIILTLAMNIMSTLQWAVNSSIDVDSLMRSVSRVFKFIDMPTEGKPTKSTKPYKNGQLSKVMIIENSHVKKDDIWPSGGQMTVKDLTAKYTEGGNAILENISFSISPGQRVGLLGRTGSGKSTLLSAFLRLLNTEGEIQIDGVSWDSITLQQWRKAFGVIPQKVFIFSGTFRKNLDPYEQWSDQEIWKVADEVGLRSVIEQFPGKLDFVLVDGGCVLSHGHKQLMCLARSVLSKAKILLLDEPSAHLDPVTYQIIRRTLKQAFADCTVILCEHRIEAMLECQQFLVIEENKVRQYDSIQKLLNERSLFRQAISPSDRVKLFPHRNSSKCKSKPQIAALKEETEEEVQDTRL
Summary of the method: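 Chemiluminescent read-out of surface HRP (15 min, dark) after PBS washes. Activity is normalized as 100×(sample−DMSO)/(3 μM co-corrector alone−DMSO).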

ΔF508-CFTR [2] = target: T1, ΔF508-CFTR; test: CFTR cell surface levels using HRP-tagged ΔF508-CFTR expressing CFBE cells, intrinsic corrector capacity; assay type: cell-based; design: % Activation: concentration or dose not given beside the values; details: HRP-tagged ΔF508-CFTR expressing CFBE41o- cells, compound alone (intrinsic corrector capacity), 20 hours at 33° C.; for EC50: read-out: EC50
Summary of the method: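 Surface ΔF508-CFTR was measured as HRP chemiluminescence from an extracellular-loop-4 tag, expressed as percent activity between DMSO and a […] corrector control.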

Row | SMILES | % Activation (ΔF508-CFTR [1]) | EC50 (ΔF508-CFTR [1]) | % Activation (ΔF508-CFTR [2]) | EC50 (ΔF508-CFTR [2])
1 | COCCS(=O)(=O)NC(=O)c1cc(-c2ccc(N3CCOCC3)cc2)c2c(C)nn(C3CC3)c2n1 [Compound 235, 1-cyclopropyl-N-(2-methoxyethanesulfonyl)-3-methyl-4-[4-(morpholin-4-yl)phenyl]-1H-pyrazolo[3,4-b]pyridine-6-carboxamide] | 257.55% | 2490 nM | 102.76% | 3270 nM
2 | CS(=O)(=O)NC(=O)c1cc(OC[C@H](F)C2CCOCC2)c2c(C3CCC3)nn(-c3ccccc3)c2n1 [Compound 237, 3-cyclobutyl-4-[(2R)-2-fluoro-2-(oxan-4-yl)ethoxy]-N-(methanesulfonyl)-1-phenyl-1H-pyrazolo[3,4-b]pyridine-6-carboxamide] | 264.05% | 222 nM | 120% | 453 nM
3 | Cc1nn(C2CCCCC2)c2nc(C(=O)NS(=O)(=O)C3CC3)cc(-c3ccc(N4CCOCC4)cc3)c12 [Compound 239, 1-cyclohexyl-N-(cyclopropanesulfonyl)-3-methyl-4-[4-(morpholin-4-yl)phenyl]-1H-pyrazolo[3,4-b]pyridine-6-carboxamide] | 431.55% | 1240 nM | 184.6% | 999 nM
4 | COCC1CCN(c2cc(C(=O)NS(=O)(=O)c3cn[nH]c3)nc3c2c(C2CCC2)nn3-c2ccccc2)CC1 [Compound 253, 3-cyclobutyl-4-[4-(methoxymethyl)piperidin-1-yl]-1-phenyl-N-(1H-pyrazole-4-sulfonyl)-1H-pyrazolo[3,4-b]pyridine-6-carboxamide] | 454.4% | 251 nM | 174.6% | 676 nM
5 | CC1(COc2cc(C(=O)NS(C)(=O)=O)nc3c2c(C2CCC2)nn3-c2ccccc2)COC1 [Compound 254, 3-cyclobutyl-N-(methanesulfonyl)-4-[(3-methyloxetan-3-yl)methoxy]-1-phenyl-1H-pyrazolo[3,4-b]pyridine-6-carboxamide] | 312.1% | 370 nM | 117.5% | 400 nM
6 | COC1(CN2CCS(=O)(=O)CC2)CCN(c2cc(C(=O)NS(C)(=O)=O)nc3c2c(C2CCC2)nn3-c2ccccc2)CC1 [Compound 255, 3-cyclobutyl-4-{4-[(1,1-dioxo-1λ^6,4-thiazinan-4-yl)methyl]-4-methoxypiperidin-1-yl}-N-(methanesulfonyl)-1-phenyl-1H-pyrazolo[3,4-b]pyridine-6-carboxamide] | 365.8% | 3330 nM | 122.3% | 1880 nM
7 | COCCS(=O)(=O)NC(=O)c1cc(N2CCC(COC)CC2)c2c(C3CCC3)nn(-c3ccccc3)c2n1 [Compound 256, 3-cyclobutyl-N-(2-methoxyethanesulfonyl)-4-[4-(methoxymethyl)piperidin-1-yl]-1-phenyl-1H-pyrazolo[3,4-b]pyridine-6-carboxamide] | 508.63% |  | 331.85% | 
8 | CS(=O)(=O)NC(=O)c1cc(-c2ccc(N3CCC(C#N)CC3)nc2)c2c(n1)n(-c1ccccc1)nc2[C@H]1C[C@H](C)C1 [Compound 257, 4-[6-(4-cyanopiperidin-1-yl)pyridin-3-yl]-N-(methanesulfonyl)-3-(trans-3-methylcyclobutyl)-1-phenyl-1H-pyrazolo[3,4-b]pyridine-6-carboxamide] | 451.25% | 74.3 nM | 272.4% | 370 nM
9 | CS(=O)(=O)NC(=O)c1cc(-c2ccc(N3CCC(C#N)CC3)nc2)c2c(OC3CCNCC3)nn(-c3ccccc3)c2n1 [Compound 258, 4-[6-(4-cyanopiperidin-1-yl)pyridin-3-yl]-N-(methanesulfonyl)-1-phenyl-3-[(piperidin-4-yl)oxy]-1H-pyrazolo[3,4-b]pyridine-6-carboxamide] | 127.1% | > 10000 nM | 8.829% | > 10000 nM
10 | COCC1CCN(c2cc(C(=O)NS(=O)(=O)CCN3C(=O)c4ccccc4C3=O)nc3c2c(C2CCC2)nn3-c2ccccc2)CC1 [Compound 260, 3-cyclobutyl-N-[2-(1,3-dioxoisoindolin-2-yl)ethylsulfonyl]-4-[4-(methoxymethyl)-1-piperidyl]-1-phenyl-pyrazolo[3,4-b]pyridine-6-carboxamide] | 664.07% | 130 nM | 473.35% | 1870 nM
11 | COCC1CCN(c2cc(C(=O)NS(=O)(=O)CCN)nc3c2c(C2CCC2)nn3-c2ccccc2)CC1 [Compound 261, N-(2-aminoethanesulfonyl)-3-cyclobutyl-4-[4-(methoxymethyl)piperidin-1-yl]-1-phenyl-1H-pyrazolo[3,4-b]pyridine-6-carboxamide] | 129.3% | > 10000 nM | 26.85% | > 10000 nM
12 | COCC1CCN(c2cc(C(=O)NS(C)(=O)=O)nc3c2c(C(C)C)nn3CC2CCC2)CC1 [Compound 262, 1-(cyclobutylmethyl)-N-(methanesulfonyl)-4-[4-(methoxymethyl)piperidin-1-yl]-3-(propan-2-yl)-1H-pyrazolo[3,4-b]pyridine-6-carboxamide] | 420.17% | 523 nM | 232.07% | 598 nM
13 | COCC1CCN(c2cc(C(=O)NS(C)(=O)=O)nc3c2c(C(C)C)nn3CC(C)C)CC1 [Compound 264, N-(methanesulfonyl)-4-[4-(methoxymethyl)piperidin-1-yl]-1-(2-methylpropyl)-3-(propan-2-yl)-1H-pyrazolo[3,4-b]pyridine-6-carboxamide] | 478.6% | 3330 nM | 242.5% | 969 nM
14 | COCCS(=O)(=O)NC(=O)c1cc(N2CCC(COC)CC2)c2c(C(C)C)nn(CC(C)C)c2n1 [Compound 265, N-(2-methoxyethanesulfonyl)-4-[4-(methoxymethyl)piperidin-1-yl]-1-(2-methylpropyl)-3-(propan-2-yl)-1H-pyrazolo[3,4-b]pyridine-6-carboxamide] | 427.8% | 2140 nM | 240.8% | 3330 nM
15 | CC(C)c1nn(-c2ccc(F)cc2)c2nc(C(=O)NS(C)(=O)=O)cc(N3CCN(CC(F)(F)F)CC3)c12 [Compound 266, 1-(4-fluorophenyl)-N-(methanesulfonyl)-3-(propan-2-yl)-4-[4-(2,2,2-trifluoroethyl)piperazin-1-yl]-1H-pyrazolo[3,4-b]pyridine-6-carboxamide] | 328.87% | 231 nM | 161.5% | 332 nM
16 | COCC1CCN(c2cc(C(=O)NS(C)(=O)=O)nc3c2c(C(C)C)nn3-c2ccc(=O)n(C)n2)CC1 [Compound 268, N-(methanesulfonyl)-4-[4-(methoxymethyl)piperidin-1-yl]-1-(1-methyl-6-oxo-1,6-dihydropyridazin-3-yl)-3-(propan-2-yl)-1H-pyrazolo[3,4-b]pyridine-6-carboxamide] | 122.05% | > 10000 nM | 5.213% | > 10000 nM
